The values that follow come from US12398154B2, “Azaquinazoline pan-KRas inhibitors” (Mirati Therapeutics, Inc., priority 2020, dated 2025).

One experiment addresses KRas G12D (Homo sapiens, UniProt P01116, G12D). In words: biochemical.
The test system of the next experiment is pERK in A549 cells. The experiment can be described thus: Inhibition of KRas phosphorylation of ERK (Cisbio HTRF pERK assay). The conditions noted are these: Homo sapiens, A549, read-out: Inhibition (HTRF IC50) of KRas-mediated Phosphorylation of ERK, A549.
The test system of the next experiment is pERK in H727 cells. Described as above. The conditions noted are these: Homo sapiens, NCI-H727, read-out: Inhibition (HTRF IC50) of KRas-mediated Phosphorylation of ERK, H727. (In general: Time-resolved FRET reads energy transfer from a long-lived donor to a nearby acceptor.)
For the next experiment, the target named is KRas G12R (Homo sapiens, UniProt P01116, G12R). In words: biochemical.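 Further: TR-FRET displacement assay of compound binding to KRas, read after one hour at room temperature, potency from a four-parameter fit of percent-of-control values.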
The next experiment has as its system pERK in ASPC1 cells. In words: Inhibition of KRas phosphorylation of ERK (Cisbio HTRF pERK assay). The conditions noted are these: Homo sapiens, ASPC1, read-out: Inhibition (HTRF IC50) of KRas-mediated Phosphorylation of ERK, AsPC-1.
Experiment [1] relates to phospho-ERK in NCI-H460 (Q61H) cells. In words: Inhibition of KRas-mediated phosphorylation of ERK (in-cell western). It counts as cell-based. The conditions noted are these: Homo sapiens, NCI-H460, 3 h, 3 hours compound, phospho-ERK normalized to GAPDH. The method in brief:
(§1)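 After a 3-hour incubation with diluted compound in 0.5% DMSO, cells are fixed, permeabilized and stained overnight at 4° C for phosphorylated ERK and GAPDH.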

The test system of experiment [2] is phospho-ERK in AsPC-1 (G12D) cells. The description is as above. It counts as cell-based. The conditions noted are these: Homo sapiens, ASPC1, 3 h, 3 hours compound, phospho-ERK normalized to GAPDH. The method in brief:
as §1

The subject of experiment [3] is phospho-ERK in NCI-H727 (G12V) cells. Described as above. Particulars: Homo sapiens, NCI-H727, 3 h, 3 hours compound, phospho-ERK normalized to GAPDH. It counts as cell-based. The method in brief:
as §1

Another experiment has as its target KRas G12V (Homo sapiens, UniProt P01116, G12V). The experiment can be described thus: biochemical.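 Further: KRas binding measured by TR-FRET displacement at room temperature, IC50 fitted from percent of control values.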
For a further experiment, the system named is pERK in PSN1 cells. In words: Inhibition of KRas phosphorylation of ERK (Cisbio HTRF pERK assay). The conditions noted are these: Homo sapiens, PSN1, 3 h, read-out: Inhibition (HTRF IC50) of KRas-mediated Phosphorylation of ERK, PSN1.
For a further experiment, the system named is pERK in H460 cells. The description is as above. Particulars: Homo sapiens, NCI-H460, read-out: Inhibition (HTRF IC50) of KRas-mediated Phosphorylation of ERK, H460.
In a further experiment the test system is pERK in MKN1 cells. The description is as above. Particulars: Homo sapiens, MKN-1, 3 h, read-out: Inhibition (HTRF IC50) of KRas-mediated Phosphorylation of ERK, MKN1.
For a further experiment, the system named is pERK in HCT116 cells. The experiment is described as above. Particulars: Homo sapiens, HCT-116, read-out: Inhibition (HTRF IC50) of KRas-mediated Phosphorylation of ERK, HCT116.
Another experiment relates to pERK in H358 cells. Described as above. The conditions noted are these: Homo sapiens, NCI-H358, read-out: Inhibition (HTRF IC50) of KRas-mediated Phosphorylation of ERK, H358.

KRas G12D, sequence (P01116 1-169 isoform P01116-2 G12D): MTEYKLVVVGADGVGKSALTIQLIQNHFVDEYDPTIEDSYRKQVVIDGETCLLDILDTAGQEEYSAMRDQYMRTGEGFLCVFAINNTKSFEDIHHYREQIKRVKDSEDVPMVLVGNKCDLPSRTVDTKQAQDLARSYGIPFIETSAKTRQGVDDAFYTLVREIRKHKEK
KRas G12R, sequence (P01116 1-169 isoform P01116-2 G12R): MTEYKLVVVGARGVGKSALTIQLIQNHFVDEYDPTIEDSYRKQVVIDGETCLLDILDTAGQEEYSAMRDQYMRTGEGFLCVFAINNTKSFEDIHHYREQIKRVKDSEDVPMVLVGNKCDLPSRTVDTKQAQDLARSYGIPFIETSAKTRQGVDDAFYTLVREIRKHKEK
KRas G12V, sequence (P01116 1-169 isoform P01116-2 G12V): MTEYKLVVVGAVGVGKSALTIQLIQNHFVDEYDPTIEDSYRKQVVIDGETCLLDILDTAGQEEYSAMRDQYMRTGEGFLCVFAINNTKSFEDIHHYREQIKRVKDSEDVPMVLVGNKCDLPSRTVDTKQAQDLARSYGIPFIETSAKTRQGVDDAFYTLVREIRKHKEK

Usually IC50 stands for the concentration that gives 50% inhibition. In the case of `O=C1CC2(CCCN(c3nc(OC[C@@]45CCCN4C[C@H](F)C5)nc4c(F)c(-c5cc(O)cc6ccc(F)c(F)c56)ncc34)C2)N1` (stereo partly drawn) [Example 452, 6-(7-(7,8-difluoro-3-hydroxynaphthalen-1-yl)-8-fluoro-2-(((2R,7aS)-2-fluorohexahydro-1H-pyrrolizin-7a-yl)methoxy)pyrido[4,3-d]pyrimidin-4-yl)-1,6-diazaspiro[3.5]nonan-2-one], the half-inhibitory concentration (IC50) was 4 nM on KRas G12D; 224 nM in the experiment on pERK in A549 cells; 165 nM with pERK in H727 cells; not above 2 nM against KRas G12R; 204 nM in the experiment on pERK in ASPC1 cells; 154 nM in experiment [1]. In addition, the IC50 in experiment [2] is 182 nM; in experiment [3], 793 nM; against KRas G12V, not above 2 nM; in the experiment on pERK in PSN1 cells, 4080 nM; with pERK in H460 cells, 639 nM; in the experiment on pERK in MKN1 cells, 41 nM. In the experiment with pERK in HCT116 cells, the IC50 stood at 1510 nM.

Consider `CC1(O)COCCN(c2nc(OC[C@@]34CCCN3C[C@H](F)C4)nc3c(F)c(-c4cc(O)cc5ccc(F)c(Cl)c45)ncc23)C1` (stereo partly drawn) [Example 419, 4-(7-(8-chloro-7-fluoro-3-hydroxynaphthalen-1-yl)-8-fluoro-2-(((2R,7aS)-2-fluorohexahydro-1H-pyrrolizin-7a-yl)methoxy)pyrido[4,3-d]pyrimidin-4-yl)-6-methyl-1,4-oxazepan-6-ol], for which the IC50 on KRas G12D was determined as 3 nM; in the experiment on pERK in H727 cells, 154 nM; against KRas G12R, 8 nM; with pERK in ASPC1 cells, 71 nM; against KRas G12V, 3 nM; in the experiment with pERK in PSN1 cells it was 3480 nM. The half-maximal inhibitory concentration (IC50) with pERK in H358 cells turned out to be 58 nM; in the experiment on pERK in H460 cells, 182 nM; with pERK in MKN1 cells, 14 nM; in the experiment on pERK in HCT116 cells it was 319 nM.

For `CCc1cccc2cc(O)c(F)c(-c3ncc4c(N5CCC[C@@](C)(O)C5)nc(OC[C@@]56CCCN5C[C@H](F)C6)nc4c3F)c12` [Example 472, (3R)-1-(7-(8-ethyl-2-fluoro-3-hydroxynaphthalen-1-yl)-8-fluoro-2-(((2R,7aS)-2-fluorohexahydro-1H-pyrrolizin-7a-yl)methoxy)pyrido[4,3-d]pyrimidin-4-yl)-3-methylpiperidin-3-ol], the IC50 against KRas G12D was determined as 6 nM; with pERK in H727 cells, 406 nM; at KRas G12R it was 18 nM; in the experiment with pERK in ASPC1 cells it was 89 nM; at KRas G12V it was 16 nM; with pERK in PSN1 cells, 9300 nM. The IC50 was 231 nM in the experiment on pERK in H358 cells, 414 nM with pERK in H460 cells, 80 nM with pERK in MKN1 cells and 1070 nM with pERK in HCT116 cells.

For the compound `CCc1c(F)ccc2cc(O)cc(-c3ncc4c(N5CCOCC(O)C5)nc(OC[C@@]56CCCN5C[C@H](F)C6)nc4c3F)c12` (stereo partly drawn) [Example 345, 4-(7-(8-ethyl-7-fluoro-3-hydroxynaphthalen-1-yl)-8-fluoro-2-(((2R,7aS)-2-fluorotetrahydro-1H-pyrrolizin-7a(5H)-yl)methoxy)pyrido[4,3-d]pyrimidin-4-yl)-1,4-oxazepan-6-ol], the IC50 was 138 nM in the experiment on pERK in H727 cells; 83 nM in the experiment with pERK in ASPC1 cells; 8780 nM with pERK in PSN1 cells; 20 nM with pERK in H358 cells; 82 nM in the experiment on pERK in H460 cells; 13 nM with pERK in MKN1 cells. For the same compound, the IC50 in the experiment with pERK in HCT116 cells came to 296 nM.

Take `CCc1c(F)ccc2cc(O)cc(-c3ncc4c(N5CCCC(O)CC5)nc(OC[C@@]56CCCN5C[C@H](F)C6)nc4c3F)c12` (stereo in doubt) [Example 346, 1-(7-(8-ethyl-7-fluoro-3-hydroxynaphthalen-1-yl)-8-fluoro-2-(((2R,7aS)-2-fluorohexahydro-1H-pyrrolizin-7a-yl)methoxy)pyrido[4,3-d]pyrimidin-4-yl)azepan-4-ol]: the IC50 against KRas G12D was not above 2 nM; in the experiment with pERK in H727 cells it was 113 nM; against KRas G12R it was not above 2 nM; in the experiment on pERK in ASPC1 cells it was 99 nM; at KRas G12V it was not above 2 nM; with pERK in PSN1 cells, 7390 nM. The IC50 in the experiment with pERK in H358 cells was 57 nM; in the experiment with pERK in H460 cells it was 166 nM; with pERK in MKN1 cells, 11 nM; in the experiment with pERK in HCT116 cells, 133 nM.

On to `CCc1c(F)ccc2cc(O)cc(-c3ncc4c(N5C[C@@H]6C[C@H](C5)[C@H](O)C6)nc(OCC5(CN(C)C)CC5)nc4c3F)c12` [Example 360, (1R,5R,6R)-3-(2-((1-((dimethylamino)methyl)cyclopropyl)methoxy)-7-(8-ethyl-7-fluoro-3-hydroxynaphthalen-1-yl)-8-fluoropyrido[4,3-d]pyrimidin-4-yl)-3-azabicyclo[3,2,1]octan-6-ol], for which the IC50 was 5 nM against KRas G12D; 62 nM in the experiment on pERK in H727 cells; not above 2 nM against KRas G12R; 49 nM in the experiment on pERK in ASPC1 cells; not above 2 nM on KRas G12V; 9190 nM with pERK in PSN1 cells. Moreover, the IC50 with pERK in H358 cells stood at 19 nM; in the experiment with pERK in H460 cells it was 54 nM; in the experiment on pERK in MKN1 cells, 2 nM; with pERK in HCT116 cells, 140 nM.

As to `O=C1NC(=O)C2(CCCN(c3nc(OC[C@@]45CCCN4C[C@H](F)C5)nc4c(F)c(-c5cc(O)cc6ccc(F)c(F)c56)ncc34)C2)N1` (stereo partly drawn) [Example 444, 7-(7-(7,8-difluoro-3-hydroxynaphthalen-1-yl)-8-fluoro-2-(((2R,7aS)-2-fluorohexahydro-1H-pyrrolizin-7a-yl)methoxy)pyrido[4,3-d]pyrimidin-4-yl)-1,3,7-triazaspiro[4.5]decane-2,4-dione], the IC50 against KRas G12D was 5 nM; with pERK in A549 cells, 734 nM; in the experiment with pERK in H727 cells, 1160 nM; against KRas G12R, not above 2 nM; in the experiment on pERK in ASPC1 cells it was 1690 nM; in [1] it was 656 nM. Moreover, the IC50 in experiment [2] was 2440 nM; in experiment [3], 1740 nM; at KRas G12V, not above 2 nM; with pERK in PSN1 cells, not below 10000 nM; in the experiment on pERK in H460 cells it was 1560 nM; in the experiment with pERK in MKN1 cells, 37 nM. Besides, the IC50 in the experiment on pERK in HCT116 cells turned out to be 1760 nM.

For the compound `C#Cc1c(F)ccc2cc(O)cc(-c3ncc4c(N5CCOCC(CO)C5)nc(OC[C@@]56CCCN5C[C@H](F)C6)nc4c3F)c12` (stereo partly drawn) [Example 391, 5-ethynyl-6-fluoro-4-(8-fluoro-2-(((2R,7aS)-2-fluorohexahydro-1H-pyrrolizin-7a-yl)methoxy)-4-(6-(hydroxymethyl)-1,4-oxazepan-4-yl)pyrido[4,3-d]pyrimidin-7-yl)naphthalen-2-ol], the IC50 against KRas G12D was not above 2 nM; with pERK in H727 cells, 74 nM; at KRas G12R, not above 2 nM; in the experiment with pERK in ASPC1 cells, 61 nM; on KRas G12V, not above 2 nM; with pERK in PSN1 cells, 3990 nM. The IC50 in the experiment on pERK in H358 cells came out at 22 nM; with pERK in H460 cells, 143 nM; with pERK in MKN1 cells, 12 nM; with pERK in HCT116 cells it was 563 nM.

Consider `CCc1c(F)ccc2cc(O)cc(-c3ncc4c(N5CCCn6nc(C(=O)N(C)C)c(F)c6C5)nc(OC[C@@]56CCCN5C[C@H](F)C6)nc4c3F)c12` [Example 505, 5-(7-(8-ethyl-7-fluoro-3-hydroxynaphthalen-1-yl)-8-fluoro-2-(((2R,7aS)-2-fluorohexahydro-1H-pyrrolizin-7a-yl)methoxy)pyrido[4,3-d]pyrimidin-4-yl)-3-fluoro-N,N-dimethyl-5,6,7,8-tetrahydro-4H-pyrazolo[1,5-a][1,4]diazepine-2-carboxamide], for which the IC50 on KRas G12D is not above 2 nM; in the experiment with pERK in H727 cells it was 50 nM; against KRas G12R, not above 2 nM; in the experiment on pERK in ASPC1 cells it was 14 nM; on KRas G12V, not above 2 nM; in the experiment with pERK in PSN1 cells, not below 10000 nM. In addition, the IC50 in the experiment with pERK in H358 cells came to 16 nM; in the experiment with pERK in H460 cells it was 327 nM; in the experiment with pERK in MKN1 cells, 31 nM.
